Laboratory results: patent US4968706A, “Ethers and thioethers having therapeutical activity, their preparation and pharmaceutical compositions containing them” (priority 1987, dated 1990)

Assays:
[1] = test system: hyperreactive spasmus induced by acetylcholine challenge; test: Hyperreactive spasmus induced by acetylcholine challenge in anaesthetized guinea-pigs submitted to forced tobacco-smoking respiration; format: in vivo; details: for activity as reference substance in the acetylcholine challenge procedure: i.m. administration
[2] = test system: tracheo-bronchial mucus secretion; test: Red phenol secretion in BAL (mucus secretion); format: in vivo, Albino Swiss male mice
Procedure: (§1) The ability of a drug to modify the tracheo-bronchial mucus secretion is evaluated measuring the excretion of a dyestuff in the respiratory tree.
(§2) Albino Swiss male mice are used in this test and the animals are killed 30 minutes after dye treatment. The dye content in BAL's is evaluated spectrometrically at 546 nm.
An increased red phenol secretion in BAL's after drug treatment means stimulation of mucus production.

[3] = test system: tracheo-bronchial mucus secretion; test: Uranine secretion in BAL (mucus secretion); format: in vivo, Albino Swiss female mice
Procedure: as §1
The animals are sacrified 30 minutes after; the respiratory tree is excised and accurately washed. The washing fluids (BAL) are collected and evaluated for the uranine content using a spectrofluorimetric technique.
as §2

[4] = test system: tracheo-bronchial mucus secretion; test: Time-course of red phenol excretion (long-lasting action); format: in vivo, Albino Swiss male mice
Procedure: as §2
Infact, a substance can be administered 2, 1 and 1/2 hours before the intraperitoneal administration of the red phenol marker. If the animals are killed, as usual, half an hour after the dyestuff treatment, the overall time of drug action increases from 1 hr to 11/2 and 21/2 hrs respectively.

[5] = test system: tracheo-bronchial mucus secretion; details: known effect of therapeutically active drugs; cited from earlier work
[6] = 100 mg/kg os, overall experiment 1 1/2 hours
[7] = 100 mg/kg os, overall experiment 2 1/2 hours
[8] = 100 mg/kg os, overall experiment 1 hour

C[C@H]1C[C@@H]2[C@H]([C@@H](O)C[C@@]3(C)[C@H]2CC[C@]3(O)C(=O)CO)[C@@]2(C)C=CC(=O)C=C12 [6-α-methylprednisolone]
activity as reference substance in the acetylcholine challenge procedure [1]: Positive

COc1ccccc1OCCSCC(=O)O [Substance A, 3-thia-5-(2-methoxy-phenoxy)-pentanoic acid]
% increase of dyestuff secretion in BAL (vs. untreated animals), red phenol ([2]; 25 mg/kg os): 25%
% increase of dyestuff secretion in BAL (vs. untreated animals), red phenol ([2]; 50 mg/kg os): 50%
% increase of dyestuff secretion in BAL (vs. untreated animals), red phenol ([2]; 100 mg/kg os): 104%
% increase of dyestuff secretion in BAL (vs. untreated animals), uranine ([3]; 25 mg/kg os): 45%
% increase of dyestuff secretion in BAL (vs. untreated animals), uranine ([3]; 50 mg/kg os): 98%
% increase of dyestuff secretion in BAL (vs. untreated animals), uranine ([3]; 100 mg/kg os): 138%
Time-course of % increase of red phenol excretion (vs. untreated animals) [4, 6]: 98%
Time-course of % increase of red phenol excretion (vs. untreated animals) [4, 7]: 62%
Time-course of % increase of red phenol excretion (vs. untreated animals) [4, 8]: 104%

COc1ccccc1OCCSCC(=O)NCc1cccnc1 [Substance B, N-(3-pyridyl)methy 1-3-thia-5 (2-methoxy-phenoxy)pentanoic acid amide]
% increase of dyestuff secretion in BAL (vs. untreated animals), red phenol ([2]; 25 mg/kg os): 12%
% increase of dyestuff secretion in BAL (vs. untreated animals), red phenol ([2]; 50 mg/kg os): 73%
% increase of dyestuff secretion in BAL (vs. untreated animals), red phenol ([2]; 100 mg/kg os): 126%
% increase of dyestuff secretion in BAL (vs. untreated animals), uranine ([3]; 25 mg/kg os): 70%
% increase of dyestuff secretion in BAL (vs. untreated animals), uranine ([3]; 50 mg/kg os): 140%
% increase of dyestuff secretion in BAL (vs. untreated animals), uranine ([3]; 100 mg/kg os): 190%
Time-course of % increase of red phenol excretion (vs. untreated animals) [4, 6]: 119%
Time-course of % increase of red phenol excretion (vs. untreated animals) [4, 7]: 62%
Time-course of % increase of red phenol excretion (vs. untreated animals) [4, 8]: 126%
reduction of hyperreactive spasmus induced by acetylcholine challenge ([1]; e.v. treatment, 5 to 30 mg/kg, forced tobacco-smoking respiration): able to reduce the hyperreactive spasmus induced by acetylcholine challenge in dose dependent way

COc1ccccc1OCC1COC(CSCC(=O)O)O1 (centres unmarked) [Substance C, 3-thia-4-[4-(2-methoxy-phenoxy)methyl-(Z,E)-dioxolan-2-yl]-butanoic acid]
% increase of dyestuff secretion in BAL (vs. untreated animals), red phenol ([2]; 25 mg/kg os): 47%
% increase of dyestuff secretion in BAL (vs. untreated animals), red phenol ([2]; 50 mg/kg os): 83%
% increase of dyestuff secretion in BAL (vs. untreated animals), red phenol ([2]; 100 mg/kg os): 143%
% increase of dyestuff secretion in BAL (vs. untreated animals), uranine ([3]; 25 mg/kg os): 25%
% increase of dyestuff secretion in BAL (vs. untreated animals), uranine ([3]; 50 mg/kg os): 52%
% increase of dyestuff secretion in BAL (vs. untreated animals), uranine ([3]; 100 mg/kg os): 101%
Time-course of % increase of red phenol excretion (vs. untreated animals) [4, 6]: 72%
Time-course of % increase of red phenol excretion (vs. untreated animals) [4, 7]: 42%
Time-course of % increase of red phenol excretion (vs. untreated animals) [4, 8]: 143%

COc1ccccc1OCC1COC(CSCC(=O)NCc2cccnc2)O1 (centres unmarked) [Substance D, N-(3-pyridyl)methyl-3-thia-4-[4-(2-methoxy-phenoxy)-methyl-(Z,E)-(1,3)-dioxolan-2-yl]-butanoic acid amide]
% increase of dyestuff secretion in BAL (vs. untreated animals), red phenol ([2]; 25 mg/kg os): 49%
% increase of dyestuff secretion in BAL (vs. untreated animals), red phenol ([2]; 50 mg/kg os): 120%
% increase of dyestuff secretion in BAL (vs. untreated animals), red phenol ([2]; 100 mg/kg os): 179%
% increase of dyestuff secretion in BAL (vs. untreated animals), uranine ([3]; 25 mg/kg os): 66%
% increase of dyestuff secretion in BAL (vs. untreated animals), uranine ([3]; 50 mg/kg os): 132%
% increase of dyestuff secretion in BAL (vs. untreated animals), uranine ([3]; 100 mg/kg os): 284%
Time-course of % increase of red phenol excretion (vs. untreated animals) [4, 6]: 111%
Time-course of % increase of red phenol excretion (vs. untreated animals) [4, 7]: 58%
Time-course of % increase of red phenol excretion (vs. untreated animals) [4, 8]: 179%

CN(Cc1cc(Br)cc(Br)c1N)C1CCCCC1 [Substance E, bromexine, reference compound]
% increase of dyestuff secretion in BAL (vs. untreated animals), red phenol ([2]; 25 mg/kg os): 28%
% increase of dyestuff secretion in BAL (vs. untreated animals), red phenol ([2]; 50 mg/kg os): 69%
% increase of dyestuff secretion in BAL (vs. untreated animals), red phenol ([2]; 100 mg/kg os): 83%
% increase of dyestuff secretion in BAL (vs. untreated animals), uranine ([3]; 25 mg/kg os): 0%
% increase of dyestuff secretion in BAL (vs. untreated animals), uranine ([3]; 50 mg/kg os): 50%
% increase of dyestuff secretion in BAL (vs. untreated animals), uranine ([3]; 100 mg/kg os): 63%
Time-course of % increase of red phenol excretion (vs. untreated animals) [4, 6]: 61%
Time-course of % increase of red phenol excretion (vs. untreated animals) [4, 7]: 21%
Time-course of % increase of red phenol excretion (vs. untreated animals) [4, 8]: 98%
uranine content in the BAL's in respect to control values (in words) [5]: increase the uranine content in the BAL's in a dose dependent way

CC1=CCC(C(C)(C)O)CC1O (centres unmarked) [Substance F, sobrerol, reference compound]
% increase of dyestuff secretion in BAL (vs. untreated animals), red phenol ([2]; 50 mg/kg os): 48%
% increase of dyestuff secretion in BAL (vs. untreated animals), red phenol ([2]; 100 mg/kg os): 69%
% increase of dyestuff secretion in BAL (vs. untreated animals), red phenol ([2]; 200 mg/kg os): 111%
% increase of dyestuff secretion in BAL (vs. untreated animals), uranine ([3]; 50 mg/kg os): 54%
% increase of dyestuff secretion in BAL (vs. untreated animals), uranine ([3]; 100 mg/kg os): 104%
% increase of dyestuff secretion in BAL (vs. untreated animals), uranine ([3]; 200 mg/kg os): 144%
Time-course of % increase of red phenol excretion (vs. untreated animals) ([4]; 200 mg/kg os, overall experiment 1 1/2 hours): 73%
Time-course of % increase of red phenol excretion (vs. untreated animals) ([4]; 200 mg/kg os, overall experiment 2 1/2 hours): 30%
Time-course of % increase of red phenol excretion (vs. untreated animals) ([4]; 200 mg/kg os, overall experiment 1 hour): 108%
uranine content in the BAL's in respect to control values (in words) [5]: increase the uranine content in the BAL's in a dose dependent way

O=C(O)c1cc(=O)c2c(OCC(O)COc3cccc4oc(C(=O)O)cc(=O)c34)cccc2o1 [sodium dichromoglicate]
activity as reference substance in the acetylcholine challenge procedure [1]: Positive
